For assay [1], the system named is Enterococcus faecalis, ATCC 33186. Kind of assay: Minimal inhibitory concentration assay (microbroth dilution). The assay is classed as cell-based. Summed up: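 Compound is serially diluted two-fold in the appropriate broth, and bacterial inoculum at about 10^5 cfu/mL is added so the highest final concentration is 200 μM. Plates stay overnight at 37 °C under aerobic conditions before growth is scored by eye.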
In general terms: In broth dilution the organism is exposed to a series of concentrations in liquid medium.

The target of the next assay is T1, Sa-ClpP (Staphylococcus aureus, UniProt Q2G036).
T1 construct: made in house; host or cells: E. coli BL21(DE3)
T1 sequence (Q2G036 1-195): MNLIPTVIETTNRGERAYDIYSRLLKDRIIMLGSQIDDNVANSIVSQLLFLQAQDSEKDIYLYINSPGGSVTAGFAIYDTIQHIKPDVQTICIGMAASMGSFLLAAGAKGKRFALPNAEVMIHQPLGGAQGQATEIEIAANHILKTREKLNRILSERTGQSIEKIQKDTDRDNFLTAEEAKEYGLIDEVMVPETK
Nature of the assay: Sa-ClpP casein-BODIPY ClpP activation assay, method variant not marked in Table 5. The assay is classed as biochemical, S. aureus. In outline:
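EC50 for activation derived by dose-response fitting of casein digestion rates, run in triplicate. Conditions: 37° C, pH 8 buffer with 200 mM KCl and 1 mM TCEP, 10 μM Sa-ClpP, 25 μg/ml BODIPY FL casein, compound at 0-1000 μM; signal at 485/528 nm followed 45 min.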

[2] abbreviates: Enterococcus faecalis, ATCC33186, read-out: Minimal Inhibitory Concentrations E. faecalis ATCC 33186.
Setting [3] is: values without ** or † mark, assay variant not stated, read-out: ClpP Activation EC50.
Where [4] appears, read: Enterococcus faecalis, ATCC33186; read-out: Minimal Inhibitory Concentrations E. faecalis ATCC 33186.

≈ marks a conversion by molar mass, not a printed value. Like-named read-outs stand apart in the source and are kept apart here. *1 amine or outer side, *2 acyl side, *3 side chain or, on linkers, in order; H or OH if unused. Where a SMILES comes first, the peptide text is derived from it. Bridges are numbered along the chain shown (N, C = ends). [ ]: non-standard residue; d: D form. The star is where a group is joined. ξ: configuration not given here. NH(1,3-benzodioxol-5-yl) = c1cc2c(cc1N*)OCO2; Phe(3,5-F2) = N[C@@H](Cc1cc(F)cc(F)c1)C(=O)O; NH(1-Me-indolin-5-yl) = CN1CCc2cc(N*)ccc21; Morpholine(3S-CO) = O=C(O)[C@@H]1COCCN1; NH(4-Cl-2-F-phenyl) = Fc1cc(Cl)ccc1N*; Pro(4R-Me) = C[C@H]1CN[C@H](C(=O)O)C1; Hyp = O=C(O)[C@@H]1C[C@@H](O)CN1; NH(4-Et-phenyl) = CCc1ccc(N*)cc1; NH(4-Me-phenyl) = Cc1ccc(N*)cc1; ξNMeThr = CNC(C(=O)O)[C@@H](C)O; aThr = C[C@H](O)[C@H](N)C(=O)O; Pip = O=C(O)[C@@H]1CCCCN1; X2 = CN1CCc2ccc(N*)cc21; CO = O=C([*:1])[*:2] Bounds are passed on as bounds.

One may read the EC50 as the concentration needed to bring the measured effect to its halfway point.

Turning to `C[C@@H]1C[C@H]2C(=O)O[C@@H](C)[C@H](NC(=O)[C@H](Cc3cc(F)cc(F)c3)NC(=O)Nc3ccc4c(c3)CCN4C)C(=O)N3CCC[C@H]3C(=O)N3CCOC[C@H]3C(=O)N[C@@H](C)C(=O)N2C1` [Compound 312, (S)-3-(3,5-difluorophenyl)-2-(3-(1-methylindolin-5-yl)ureido)-N-((6aS,12S,13S,15aS,17R,21S,23aS)-13,17,21-trimethyl-6,11,15,20,23-pentaoxooctadecahydro-6H,11H,15H-[1,4]oxazino[3,4-i]dipyrrolo[2,1-c:2′,1′-l][1]oxa[4,7,10,13]tetraazacyclo-hexadecin-12-yl)propanamide] ({NH(1-Me-indolin-5-yl)-CO}-[Phe(3,5-F2)][aThr]P[Morpholine(3S-CO)]A[Pro(4R-Me)]; ester 2-C), the MIC in assay [1] (setting [2]) is 0.039 µM (≈ 0.0332 µg/mL). Besides, on Sa-ClpP (setting [3]), the EC50 turned out to be 440 ± 20 nM.

For `C[C@@H]1C[C@H]2C(=O)O[C@@H](C)[C@H](NC(=O)[C@H](Cc3cc(F)cc(F)c3)NC(=O)Nc3ccc(Cl)cc3F)C(=O)N3CCC[C@H]3C(=O)N(C)C([C@@H](C)O)C(=O)N[C@@H](C)C(=O)N2C1` (stereo partly drawn) [Compound 313, (S)-2-(3-(4-chloro-2-fluorophenyl)ureido)-3-(3,5-difluorophenyl)-N-((2R,6S,9R,11aS,17S,18S,20aS)-9-((R)-1-hydroxyethyl)-2,6,10,18-tetramethyl-5,8,11,16,20-pentaoxohexadecahydro-1H,5H,16H-dipyrrolo[2,1-c:2′,1′-l][1]oxa[4,7,10,13]tetraazacyclohexadecin-17-yl)propanamide] ({NH(4-Cl-2-F-phenyl)-CO}-[Phe(3,5-F2)][aThr]P[ξNMeThr]A[Pro(4R-Me)]; ester 2-C), the MIC in assay [1] (setting [4]) amounted to 0.039 µM (≈ 0.0332 µg/mL). Further, a half-maximal response at Sa-ClpP (EC50) required 340 ± 10 nM.

In the case of `C[C@@H]1C[C@H]2C(=O)O[C@@H](C)[C@H](NC(=O)[C@H](Cc3cc(F)cc(F)c3)NC(=O)Nc3ccc(Cl)cc3F)C(=O)N3CCC[C@H]3C(=O)N3CCOC[C@H]3C(=O)N[C@@H](C)C(=O)N2C1` [Compound 314, (S)-2-(3-(4-chloro-2-fluorophenyl)ureido)-3-(3,5-difluorophenyl)-N-((6aS,12S,13S,15aS,17R,21S,23aS)-13,17,21-trimethyl-6,11,15,20,23-pentaoxooctadecahydro-6H,11H,15H-[1,4]oxazino[3,4-i]dipyrrolo[2,1-c:2′,1′-l][1]oxa[4,7,10,13]tetraazacyclo-hexadecin-12-yl)propanamide] ({NH(4-Cl-2-F-phenyl)-CO}-[Phe(3,5-F2)][aThr]P[Morpholine(3S-CO)]A[Pro(4R-Me)]; ester 2-C), the MIC in assay [1] (setting [4]) came to 0.039 µM (≈ 0.0331 µg/mL). Further, the EC50 on Sa-ClpP amounted to 400 ± 10 nM.

As to `C[C@@H]1C[C@H]2C(=O)O[C@@H](C)[C@H](NC(=O)[C@H](Cc3cc(F)cc(F)c3)NC(=O)Nc3ccc4c(c3)CCN4C)C(=O)N3C[C@H](O)C[C@H]3C(=O)N3CCOC[C@H]3C(=O)N[C@@H](C)C(=O)N2C1` [Compound 315, (S)-3-(3,5-difluorophenyl)-N-((6aS,8R,12S,13S,15aS,17R,21S,23aS)-8-hydroxy-13,17,21-trimethyl-6,11,15,20,23-pentaoxooctadecahydro-6H,11H,15H-[1,4]oxazino[3,4-i]dipyrrolo[2,1-c:2′,1′-l][1]oxa[4,7,10,13]tetraazacyclohexadecin-12-yl)-2-(3-(1-methylindolin-5-yl)ureido)propanamide] ({NH(1-Me-indolin-5-yl)-CO}-[Phe(3,5-F2)][aThr][Hyp][Morpholine(3S-CO)]A[Pro(4R-Me)]; ester 2-C), in assay [1] (setting [2]), the MIC was 0.625 µM (≈ 0.542 µg/mL). Also, the EC50 on Sa-ClpP (setting [3]) turned out to be 1060 ± 40 nM.

As for `C[C@@H]1C[C@H]2C(=O)O[C@@H](C)[C@H](NC(=O)[C@H](Cc3cc(F)cc(F)c3)NC(=O)Nc3ccc(Cl)cc3F)C(=O)N3C[C@H](O)C[C@H]3C(=O)N3CCOC[C@H]3C(=O)N[C@@H](C)C(=O)N2C1` [Compound 316, (S)-2-(3-(4-chloro-2-fluorophenyl)ureido)-3-(3,5-difluorophenyl)-N-((6aS,8R,12S,13S,15aS,17R,21S,23aS)-8-hydroxy-13,17,21-trimethyl-6,11,15,20,23-pentaoxooctadecahydro-6H,11H,15H-[1,4]oxazino[3,4-i]dipyrrolo[2,1-c:2′,1′-l][1]oxa[4,7,10,13]tetraazacyclo-hexadecin-12-yl)propanamide] ({NH(4-Cl-2-F-phenyl)-CO}-[Phe(3,5-F2)][aThr][Hyp][Morpholine(3S-CO)]A[Pro(4R-Me)]; ester 2-C), the MIC in assay [1] (setting [4]) is 0.078 µM (≈ 0.0674 µg/mL). At Sa-ClpP, this compound returned an EC50 of 450 ± 20 nM.

Regarding `Cc1ccc(NC(=O)N[C@@H](Cc2cc(F)cc(F)c2)C(=O)N[C@H]2COC(=O)[C@@H]3C[C@@H](C)CN3C(=O)[C@H](C)NC(=O)[C@@H]3COCCN3C(=O)[C@@H]3C[C@@H](O)CN3C2=O)cc1` [Compound 317, (S)-3-(3,5-difluorophenyl)-N-((6aS,8R,12S,15aS,17R,21S,23aS)-8-hydroxy-17,21-dimethyl-6,11,15,20,23-pentaoxooctadecahydro-6H,11H,15H-[1,4]oxazino[3,4-i]dipyrrolo[2,1-c:2′,1′-l][1]oxa[4,7,10,13]tetraazacyclohexadecin-12-yl)-2-(3-(p-tolyl)ureido)propanamide] ({NH(4-Me-phenyl)-CO}-[Phe(3,5-F2)]S[Hyp][Morpholine(3S-CO)]A[Pro(4R-Me)]; ester 2-C), the MIC in assay [1] (setting [2]) came out at 0.313 µM (≈ 0.254 µg/mL). Moreover, at Sa-ClpP (setting [3]), the half-maximal effective concentration (EC50) came to 380 ± 30 nM.

Regarding `C[C@@H]1C[C@H]2C(=O)OC[C@H](NC(=O)[C@H](Cc3cc(F)cc(F)c3)NC(=O)Nc3ccc4c(c3)OCO4)C(=O)N3C[C@H](O)C[C@H]3C(=O)N3CCOC[C@H]3C(=O)N[C@@H](C)C(=O)N2C1` [Compound 318, (S)-2-(3-(benzo[d][1,3]dioxol-5-yl)ureido)-3-(3,5-difluorophenyl)-N-((6aS,8R,12S,15aS,17R,21S,23aS)-8-hydroxy-17,21-dimethyl-6,11,15,20,23-pentaoxooctadecahydro-6H,11H,15H-[1,4]oxazino[3,4-i]dipyrrolo[2,1-c:2′,1′-l][1]oxa[4,7,10,13]tetraazacyclo-hexadecin-12-yl)propanamide] ({NH(1,3-benzodioxol-5-yl)-CO}-[Phe(3,5-F2)]S[Hyp][Morpholine(3S-CO)]A[Pro(4R-Me)]; ester 2-C), the MIC in assay [1] (setting [4]) was greater than 20 µM. In addition, a half-maximal response on Sa-ClpP (EC50) required 460 ± 60 nM.

`C[C@@H]1C[C@H]2C(=O)O[C@@H](C)[C@H](NC(=O)[C@H](Cc3cc(F)cc(F)c3)NC(=O)Nc3ccc4c(c3)OCO4)C(=O)N3C[C@H](O)C[C@H]3C(=O)N3CCOC[C@H]3C(=O)N[C@@H](C)C(=O)N2C1` [Compound 319, (S)-2-(3-(benzo[d][1,3]dioxol-5-yl)ureido)-3-(3,5-difluorophenyl)-N-((6aS,8R,12S,13S,15aS,17R,21S,23aS)-8-hydroxy-13,17,21-trimethyl-6,11,15,20,23-pentaoxooctadecahydro-6H,11H,15H-[1,4]oxazino[3,4-i]dipyrrolo[2,1-c:2′,1′-l][1]oxa[4,7,10,13]tetraazacyclo-hexadecin-12-yl)propanamide] ({NH(1,3-benzodioxol-5-yl)-CO}-[Phe(3,5-F2)][aThr][Hyp][Morpholine(3S-CO)]A[Pro(4R-Me)]; ester 2-C): the MIC in assay [1] (setting [4]) was 0.313 µM (≈ 0.268 µg/mL). Also, on Sa-ClpP, the EC50 was 450 ± 40 nM.

As for `CCc1ccc(NC(=O)N[C@@H](Cc2cc(F)cc(F)c2)C(=O)N[C@@H]2C(=O)N3C[C@H](O)C[C@H]3C(=O)N3CCOC[C@H]3C(=O)N[C@@H](C)C(=O)N3C[C@H](C)C[C@H]3C(=O)O[C@H]2C)cc1` [Compound 320, (S)-3-(3,5-difluorophenyl)-2-(3-(4-ethylphenyl)ureido)-N-((6aS,8R,12S,13S,15aS,17R,21S,23aS)-8-hydroxy-13,17,21-trimethyl-6,11,15,20,23-pentaoxooctadecahydro-6H,11H,15H-[1,4]oxazino[3,4-i]dipyrrolo[2,1-c:2′,1′-l][1]oxa[4,7,10,13]-tetraazacyclohexadecin-12-yl)propanamide] ({NH(4-Et-phenyl)-CO}-[Phe(3,5-F2)][aThr][Hyp][Morpholine(3S-CO)]A[Pro(4R-Me)]; ester 2-C), in assay [1] (setting [4]), the MIC is 0.078 µM (≈ 0.0655 µg/mL). At Sa-ClpP, the midpoint of the response, the EC50, lay at 330 ± 100 nM.

Turning to `C[C@@H]1C[C@H]2C(=O)O[C@@H](C)[C@H](NC(=O)[C@H](Cc3cc(F)cc(F)c3)NC(=O)Nc3ccc4c(c3)N(C)CC4)C(=O)N3CCC[C@H]3C(=O)N3CCCC[C@H]3C(=O)N[C@@H](C)C(=O)N2C1` [Compound 321, (S)-3-(3,5-difluorophenyl)-2-(3-(1-methylindolin-6-yl)ureido)-N-((2R,6S,8aS,14aS,20S,21S,23aS)-2,6,21-trimethyl-5,8,14,19,23-pentaoxooctadecahydro-1H,5H,14H,19H-pyrido[2,1-i]dipyrrolo[2,1-c:2′,1′-l][1]oxa[4,7,10,13]tetraazacyclo-hexadecin-20-yl)propanamide] ({X2-CO}-[Phe(3,5-F2)][aThr]P[Pip]A[Pro(4R-Me)]; ester 2-C), the MIC in assay [1] (setting [2]) came to 0.078 µM (≈ 0.0662 µg/mL). For the same compound, the EC50 at Sa-ClpP (setting [3]) was determined as 520 ± 20 nM.

For the origin of these results see patent US10457707B2, “Substituted urea depsipeptide analogs as activators of the CLPP endopeptidase” (priority 2015, dated 2019).
